In brackets after ≈: the same amount, converted by molar mass.
Columns and labels:
[1] = DPPH radical scavenging assay; type: biochemical
Experimental: DPPH scavenging potential of samples was determined with a slightly modified method[47]^,[48]. Each sample was prepared at 500 ppm. Serial concentrations of samples were prepared (200 µL, 400 µL and 800 µL). Methanol was added to complete the total volume to 1 mL and all the samples were vortexed well. 1 mL of 0.1 mM DPPH methanolic solution was added to each diluted sample. All the samples were vortexed again, then left to stand for 30 min in the dark at environment temperature. The absorption of the developed colour appeared against the blank reagent was measured at 517 nm using a spectrophotometer. BHT was used as a standard antioxidant. The capability to scavenge DPPH radical was estimated using the following equation: DPPH scavenging ability (% inhibition)=[(A0−A*)/A0]×100
A0 is Control absorption and A* is sample absorption.

[2] = system: LPS-stimulated NO production by RAW 264.7 macrophages; test: Nitric oxide assay (Griess) in LPS-induced RAW 264.7 macrophages; type: cell-based; settings: Mus musculus; for IC50: RAW264.7, LPS-induced RAW 264.7, read-out: NO inhibition IC50; for inhibition at 12.5 µg/mL / inhibition at 25 µg/mL / inhibition at 50 µg/mL / inhibition at 100 µg/mL: RAW264.7, LPS 10 µg/mL, read-out: NO % inhibition (mean ± SEM)
Experimental: (§1) RAW 264.7 cells were suspended in a RPMI medium. After 24 h of seeding 1 × 10^5 cells per well (in 96 well plates) and incubated for 24 h for the experiments. The cells were then treated with the samples at concentrations of 100, 50, 25 and 12.5 μg/mL and incubated for 1 h. They were then stimulated with 10 μg/mL of LPS for another 24 h. The supernatant was gently transferred to new 96-well plates and used for NO determination, while the cells that remained in the old plate were used for the MTT assay of cell viability. Samples (stock) were dissolved in DMSO, and the working samples were prepared in the media. Cell viability was assessed by the mitochondrial dependent reduction of yellow MTT (3–(4,5-dimethylthiazol-2-yl)-2,5-diphenyltetrazolium bromide) to purple formazan.
Nitric oxide production was assayed by measuring nitrite in the supernatants of cultured LPS-RAW 264.7 cells. The assay was carried out as described previously with slight modification[48]^,[50]. After pre-incubation of RAW 264.7 cells (1 × 10^5 cells/mL) with LPS (10 µg/mL) for 24 h, the amount of nitrite, a stable metabolite of NO used as an indicator of NO production in the culture medium was measured using the Griess reagent (1% sulphanilamide and 0.1% naphthyl ethylenediamine dihydrochloride in 2.5% phosphoric acid). A volume of 50 µL of the cell culture medium was mixed with 50 µL of the Griess reagent. Subsequently, the mixture was incubated at room temperature for 15 min and the absorbance was measured at 540 nm by a microplate reader. Fresh culture medium was used as a blank in every experiment. The quantity of nitrite was determined from a sodium nitrite standard curve as expressed in the equation. Nitric oxide inhibition (%)=(optical denisty of control−optical denisty of test /optical denisty of control ) ×100.

RAW 264.7 cells = test: MTT cytotoxicity against RAW 264.7 macrophage cells; type: cell-based; settings: RAW 264.7, MTT
Experimental: The macrophage cell line, RAW 264.7 was obtained from the ATCC (American type culture collection). The cells were cultured in RPMI 1640 medium (Roswell Park Memorial Institute) and supplemented with 1% pen/strep and 10% heat-inactivated foetal bovine serum. The cells were incubated, in a humidified incubator, in an atmosphere of 5% CO2 at 37 °C and were subculture twice before the experiment.
as §1
The percentage of change in viability was calculated according to the formula: [(Reading of extract /Reading of negative control )−1]×100.

NNc1ncnc2c1c(-c1ccccc1)cn2-c1cccc(Cl)c1 [2a, (7–(3-Chlorophenyl)-5-phenyl-7H-pyrrolo[2,3-d]pyrimidin-4-yl)-hydrazine]
melting point: 204 to 206 °C

NNc1ncnc2c1c(-c1ccccc1)cn2-c1ccc(Cl)cc1 [2b, (7–(4-Chlorophenyl)-5-phenyl-7H-pyrrolo[2,3-d]pyrimidin-4-yl)-hydrazine]
melting point: 217 to 219 °C

Clc1cccc(-n2cc(-c3ccccc3)c3c2ncn2cnnc32)c1 [3a, 7–(3-Chlorophenyl)-9-phenyl-7H-pyrrolo[3,2-e][1,2,4]triazolo[4,3-c] pyrimidine]
melting point: 176 to 178 °C
DPPH radical-scavenging IC50 [1]: 160.05 µg/mL
DPPH % Inhibition (mean ± SEM) ([1]; conc. 100 (µg/mL)): 39.56 ± 0.88%
DPPH % Inhibition (mean ± SEM) ([1]; conc. 200 (µg/mL)): 58.09 ± 1.50%
DPPH % Inhibition (mean ± SEM) ([1]; conc. 400 (µg/mL)): 62.51 ± 0.32%
IC50 [2]: 57.3 µg/mL (≈ 166 µM)
inhibition at 12.5 µg/mL [2]: 40.6 ± 2.6%
inhibition at 25 µg/mL [2]: 53.1 ± 1.3%
inhibition at 50 µg/mL [2]: 62.5 ± 1.2%
inhibition at 100 µg/mL [2]: 65.6 ± 1.2%
Cytotoxicity of raw cells% (mean ± SEM) (RAW 264.7 cells; 12.5 µg/mL): 0%
Cytotoxicity of raw cells% (mean ± SEM) (RAW 264.7 cells; 25 µg/mL): 76.5 ± 1.9%
Cytotoxicity of raw cells% (mean ± SEM) (RAW 264.7 cells; 50 µg/mL): 78.7 ± 2.2%
Cytotoxicity of raw cells% (mean ± SEM) (RAW 264.7 cells; 100 µg/mL): 92.0 ± 1.6%

Clc1ccc(-n2cc(-c3ccccc3)c3c2ncn2cnnc32)cc1 [3b, 7–(4-Chlorophenyl)-9-phenyl-7H-pyrrolo[3,2-e][1,2,4]triazolo[4,3-c] pyrimidine]
melting point: 190 to 192 °C

S=c1[nH]nc2c3c(-c4ccccc4)cn(-c4ccc(Cl)cc4)c3ncn12 [4b, 7–(4-Chlorophenyl)-9-phenyl-7H-pyrrolo[3,2-e][1,2,4]triazolo[4,3-c]pyramid in-3-thione]
melting point: 187 to 189 °C
DPPH radical-scavenging IC50 [1]: 129.38 µg/mL
DPPH % Inhibition (mean ± SEM) ([1]; conc. 100 (µg/mL)): 37.97 ± 0.71%
DPPH % Inhibition (mean ± SEM) ([1]; conc. 200 (µg/mL)): 77.76 ± 1.60%
DPPH % Inhibition (mean ± SEM) ([1]; conc. 400 (µg/mL)): 79.55 ± 1.06%
IC50 [2]: 64.8 µg/mL (≈ 171 µM)
inhibition at 12.5 µg/mL [2]: 39.8 ± 1.9%
inhibition at 25 µg/mL [2]: 52.8 ± 1.1%
inhibition at 50 µg/mL [2]: 54.3 ± 1.6%
inhibition at 100 µg/mL [2]: 58.1 ± 3.5%
Cytotoxicity of raw cells% (mean ± SEM) (RAW 264.7 cells; 12.5 µg/mL): 0%
Cytotoxicity of raw cells% (mean ± SEM) (RAW 264.7 cells; 25 µg/mL): 69.6 ± 1.3%
Cytotoxicity of raw cells% (mean ± SEM) (RAW 264.7 cells; 50 µg/mL): 75.2 ± 2.5%
Cytotoxicity of raw cells% (mean ± SEM) (RAW 264.7 cells; 100 µg/mL): 85.4 ± 0.6%

Cc1nnc2c3c(-c4ccccc4)cn(-c4cccc(Cl)c4)c3ncn12 [5a, 7–(3-Chlorophenyl)-3-methyl-9-phenyl-7H-pyrrolo[3,2-e][1,2,4]triazolo[4,3-c] pyrimidine]
melting point: 227 to 229 °C

Cc1nnc2c3c(-c4ccccc4)cn(-c4ccc(Cl)cc4)c3ncn12 [5b, 7–(4-Chlorophenyl)-3-methyl-9-phenyl-7H-pyrrolo[3,2-e][1,2,4]triazolo[4,3-c] pyrimidine]
melting point: 201 to 203 °C

O=c1[nH]nc2c3c(-c4ccccc4)cn(-c4cccc(Cl)c4)c3ncn12 [6a, 7–(3-Chlorophenyl)-9-phenyl-7H-pyrrolo[3,2-e][1,2,4]triazolo[4,3-c]pyrimidin-3-one]
melting point: 226 to 228 °C

O=c1[nH]nc2c3c(-c4ccccc4)cn(-c4ccc(Cl)cc4)c3ncn12 [6b, 7–(4-Chlorophenyl)-9-phenyl-7H-pyrrolo[3,2-e][1,2,4]triazolo[4,3-c]pyrimidin-3-one]
melting point: 233 to 235 °C

Cc1cc(C)n(-c2ncnc3c2c(-c2ccccc2)cn3-c2cccc(Cl)c2)n1 [7a, 7–(3-Chlorophenyl)-4–(3,5-dimethyl-pyrazol-1-yl)-5-phenyl-pyrrolo[2,3-d]pyrimidine]
melting point: 180 to 182 °C

Cc1cc(C)n(-c2ncnc3c2c(-c2ccccc2)cn3-c2ccc(Cl)cc2)n1 [7b, 7–(4-Chlorophenyl)-4–(3,5-dimethyl-pyrazol-1-yl)-5-phenyl-pyrrolo[2,3-d]pyrimidine]
melting point: 199 to 201 °C

Clc1cccc(-n2cc(-c3ccccc3)c3c(N/N=C/c4ccccc4)ncnc32)c1 [8a, N-[(E)-benzylideneamino]-7–(3-chlorophenyl)-5-phenyl-pyrrolo[2,3-d]pyrimidin-4-amine]
melting point: 187 to 189 °C

Clc1ccc(-n2cc(-c3ccccc3)c3c(N/N=C/c4ccccc4)ncnc32)cc1 [8b, N-[(E)-benzylideneamino]-7–(4-chlorophenyl)-5-phenyl-pyrrolo[2,3-d]pyrimidin-4-amine]
melting point: 172 to 174 °C

Clc1ccc(/C=N/Nc2ncnc3c2c(-c2ccccc2)cn3-c2cccc(Cl)c2)cc1 [8c, 7–(3-Chlorophenyl)-N-[(E)-(4-chlorophenyl)methyleneamino]-5-phenyl-pyrrolo[2,3-d]pyrimidin-4-amine]
melting point: 247 to 249 °C

Clc1ccc(/C=N/Nc2ncnc3c2c(-c2ccccc2)cn3-c2ccc(Cl)cc2)cc1 [8d, 7–(4-Chlorophenyl)-N-[(E)-(4-chlorophenyl)methyleneamino]-5-phenyl-pyrrolo[2,3-d]pyrimidin-4-amine]
melting point: 187 to 189 °C

COc1ccc(/C=N/Nc2ncnc3c2c(-c2ccccc2)cn3-c2cccc(Cl)c2)cc1 [8e, 7–(3-Chlorophenyl)-N-[(E)-(4-methoxyphenyl)methyleneamino]-5-phenyl-pyrrolo[2,3-d]pyrimidin-4-amine]
melting point: 167 to 169 °C
DPPH radical-scavenging IC50 [1]: 122.07 µg/mL
DPPH % Inhibition (mean ± SEM) ([1]; conc. 100 (µg/mL)): 40.63 ± 2.13%
DPPH % Inhibition (mean ± SEM) ([1]; conc. 200 (µg/mL)): 82.15 ± 0.14%
DPPH % Inhibition (mean ± SEM) ([1]; conc. 400 (µg/mL)): 85.22 ± 0.17%
IC50 [2]: ~53 µg/mL (≈ 117 µM)
inhibition at 12.5 µg/mL [2]: 38.7 ± 1.7%
inhibition at 25 µg/mL [2]: 66.5 ± 3.7%
inhibition at 50 µg/mL [2]: 67.5 ± 1.8%
inhibition at 100 µg/mL [2]: 71.8 ± 1%
Cytotoxicity of raw cells% (mean ± SEM) (RAW 264.7 cells; 12.5 µg/mL): 0%
Cytotoxicity of raw cells% (mean ± SEM) (RAW 264.7 cells; 25 µg/mL): 65 ± 3.1%
Cytotoxicity of raw cells% (mean ± SEM) (RAW 264.7 cells; 50 µg/mL): 73.1 ± 1.3%
Cytotoxicity of raw cells% (mean ± SEM) (RAW 264.7 cells; 100 µg/mL): 77.7 ± 1.5%

COc1ccc(/C=N/Nc2ncnc3c2c(-c2ccccc2)cn3-c2ccc(Cl)cc2)cc1 [8f, 7–(4-Chlorophenyl)-N-[(E)-(4-methoxyphenyl)methyleneamino]-5-phenyl-pyrrolo[2,3-d]pyrimidin-4-amine]
melting point: 194 to 196 °C

Cc1cc(C(C)(C)C)c(O)c(C(C)(C)C)c1 [BHT, butylated hydroxytoluene, reference compound]
DPPH radical-scavenging IC50 [1]: 128.77 µg/mL
DPPH % Inhibition (mean ± SEM) ([1]; conc. 100 (µg/mL)): 40.03 ± 0.39%
DPPH % Inhibition (mean ± SEM) ([1]; conc. 200 (µg/mL)): 76.81 ± 0.21%
DPPH % Inhibition (mean ± SEM) ([1]; conc. 400 (µg/mL)): 90.07 ± 0.26%

— paper PMC9246196, “Novel pyrrolopyrimidine derivatives: design, synthesis, molecular docking, molecular simulations and biological evaluations as antioxidant and anti-inflammatory agents” (Journal of Enzyme Inhibition and Medicinal Chemistry, 2022)
